According to PubChem BioAssay (NCI):
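Exposure lasted 48 hours, with cells grown in 96-well plates and compounds tested at five concentrations. Definition used: TGI = concentration required for complete inhibition of growth.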

Experiments:
Experiment in all cases: growth of human tumour cells (NCI), 48 h
[1] = tested on: K-562 leukemia
[2] = tested on: SK-MEL-2 melanoma
[3] = tested on: MCF7 breast
[4] = tested on: KM12 colon
[5] = tested on: M14 melanoma
[6] = tested on: T-47D breast
[7] = tested on: SF-295 CNS
[8] = tested on: MDA-MB-435
[9] = tested on: U251 CNS
[10] = tested on: OVCAR-8 ovarian
[11] = tested on: UO-31 renal
[12] = tested on: SR leukemia
[13] = tested on: HOP-92 NSCLC
[14] = tested on: SNB-75 CNS
[15] = tested on: 786-0 renal
[16] = tested on: NCI-H522 lung
[17] = tested on: SF-268 CNS
[18] = tested on: A498 renal
[19] = tested on: HT29 colon
[20] = tested on: MALME-3M melanoma
[21] = tested on: PC-3 prostate
[22] = tested on: DU-145 prostate
[23] = tested on: SN12C renal
[24] = tested on: OVCAR-4 ovarian
[25] = tested on: UACC-257 melanoma
[26] = tested on: HS 578T breast
[27] = tested on: EKVX NSCLC
[28] = tested on: A549 NSCLC
[29] = tested on: NCI-H226 lung
[30] = tested on: NCI-H23 lung
[31] = tested on: HCT-116 colon
[32] = tested on: TK-10 renal
[33] = tested on: ACHN renal
[34] = tested on: OVCAR-5 ovarian
[35] = tested on: MDA-N
[36] = tested on: CAKI-1 renal
[37] = tested on: HCT-15 colon
[38] = tested on: NCI/ADR-RES ovarian
[39] = tested on: MDA-MB-231 breast
[40] = tested on: UACC-62 melanoma
[41] = tested on: SNB-19 CNS
[42] = tested on: LOX IMVI melanoma
[43] = tested on: SK-MEL-5 melanoma
[44] = tested on: HOP-62 NSCLC
[45] = tested on: SK-OV-3 ovarian
[46] = tested on: COLO 205 colon
[47] = tested on: MOLT-4 leukemia
[48] = tested on: BT-549 breast
[49] = tested on: SK-MEL-28 melanoma
[50] = tested on: SF-539 CNS
[51] = tested on: IGROV1 ovarian
[52] = tested on: HL-60(TB) leukemia
[53] = tested on: HCC-2998 colon
[54] = tested on: SW-620 colon
[55] = tested on: NCI-H460 lung
[56] = tested on: CCRF-CEM leukemia
[57] = tested on: OVCAR-3 ovarian
[58] = tested on: RXF 393 renal

Compound: C[C@]12O[C@@]3(C)O[C@@]3(C)[C@]3(C)O[C@]3(C)[C@@]1(C)O2
- TGI [1]: > 100 µM
- TGI [2]: > 100 µM
- TGI [3]: > 100 µM
- TGI [4]: > 100 µM
- TGI [5]: > 100 µM
- TGI [6]: > 100 µM
- TGI [7]: > 100 µM
- TGI [8]: > 100 µM
- TGI [9]: > 100 µM
- TGI [10]: > 100 µM
- TGI [11]: > 100 µM
- TGI [12]: > 100 µM
- TGI [13]: > 100 µM
- TGI [14]: 74.6 µM
- TGI [15]: > 100 µM
- TGI [16]: > 100 µM
- TGI [17]: > 100 µM
- TGI [18]: > 100 µM
- TGI [19]: > 100 µM
- TGI [20]: > 100 µM
- TGI [21]: > 100 µM
- TGI [22]: > 100 µM
- TGI [23]: > 100 µM
- TGI [24]: > 100 µM
- TGI [25]: > 100 µM
- TGI [26]: > 100 µM
- TGI [27]: > 100 µM
- TGI [28]: > 100 µM
- TGI [29]: > 100 µM
- TGI [30]: > 100 µM
- TGI [31]: > 100 µM
- TGI [32]: > 100 µM
- TGI [33]: > 100 µM
- TGI [34]: > 100 µM
- TGI [35]: > 100 µM
- TGI [36]: > 100 µM
- TGI [37]: > 100 µM
- TGI [38]: > 100 µM
- TGI [39]: > 100 µM
- TGI [40]: > 100 µM
- TGI [41]: > 100 µM
- TGI [42]: > 100 µM
- TGI [43]: > 100 µM
- TGI [44]: > 100 µM
- TGI [45]: > 100 µM
- TGI [46]: > 100 µM
- TGI [47]: > 100 µM
- TGI [48]: > 100 µM
- TGI [49]: > 100 µM

Compound: COc1c(OC)c(OC)c2c(=O)c(OC)c(-c3ccc4c(c3)OCO4)oc2c1OC
- TGI [50]: > 100 µM
- TGI [1]: > 100 µM
- TGI [2]: > 100 µM
- TGI [3]: > 100 µM
- TGI [4]: > 100 µM
- TGI [51]: > 100 µM
- TGI [5]: > 100 µM
- TGI [6]: > 100 µM
- TGI [7]: > 100 µM
- TGI [8]: > 100 µM
- TGI [9]: > 100 µM
- TGI [10]: > 100 µM
- TGI [11]: > 100 µM
- TGI [52]: 33.4 µM
- TGI [13]: > 100 µM
- TGI [14]: > 100 µM
- TGI [15]: > 100 µM
- TGI [53]: > 100 µM
- TGI [16]: > 100 µM
- TGI [17]: > 100 µM
- TGI [18]: > 100 µM
- TGI [54]: > 100 µM
- TGI [19]: > 100 µM
- TGI [20]: > 100 µM
- TGI [21]: > 100 µM
- TGI [22]: > 100 µM
- TGI [23]: > 100 µM
- TGI [24]: > 100 µM
- TGI [25]: > 100 µM
- TGI [26]: > 100 µM
- TGI [55]: > 100 µM
- TGI [27]: > 100 µM
- TGI [28]: > 100 µM
- TGI [29]: > 100 µM
- TGI [30]: > 100 µM
- TGI [31]: > 100 µM
- TGI [32]: > 100 µM
- TGI [33]: > 100 µM
- TGI [34]: > 100 µM
- TGI [35]: > 100 µM
- TGI [36]: > 100 µM
- TGI [37]: > 100 µM
- TGI [38]: > 100 µM
- TGI [56]: > 100 µM
- TGI [39]: > 100 µM
- TGI [40]: > 100 µM
- TGI [41]: > 100 µM
- TGI [42]: > 100 µM
- TGI [43]: > 100 µM
- TGI [44]: > 100 µM
- TGI [45]: > 100 µM
- TGI [46]: > 100 µM
- TGI [57]: > 100 µM
- TGI [47]: > 100 µM
- TGI [48]: > 100 µM
- TGI [58]: > 100 µM
- TGI [49]: > 100 µM
